Test results reported in patent US7902354B2, “Lapachone compounds and methods of use thereof” (ArQule, Inc., priority 2006, dated 2011).
Like-named read-outs stand apart in the source and are kept apart here.

Tests used:
Assay type in all cases: cell-based
[1] = system: A549 human lung carcinoma cells; experiment: MTS cell viability assay, A549 human lung carcinoma cells; settings: read-out: IC50 Values, Cancerous Cells, Lung A549
[2] = system: NCM-460 normal colon epithelial cells; experiment: MTS cell viability assay, NCM-460 normal colon epithelial cells; settings: for IC50: Homo sapiens, read-out: IC50 Values, Normal Cells, Colon NCM-460
[3] = system: K-562 human leukemia cells; experiment: MTS cell viability assay, K-562 human leukemia cells; settings: read-out: IC50 Values, Cancerous Cells, Leukemia K-562
[4] = system: DU-145 human prostate carcinoma cells; experiment: MTS cell viability assay, DU-145 human prostate carcinoma cells; settings: read-out: IC50 Values, Cancerous Cells, Prostate DU-145
[5] = system: DLD-1 human colon carcinoma cells; experiment: MTS cell viability assay, DLD-1 human colon carcinoma cells; settings: read-out: IC50 Values, Cancerous Cells, Colon DLD-1
[6] = system: PACA-2 human pancreatic carcinoma cells; experiment: MTS cell viability assay, PACA-2 human pancreatic carcinoma cells; settings: read-out: IC50 Values, Cancerous Cells, Pancreas PACA-2
[7] = A549, 4 h compound incubation, MTS
[8] = NCM460, NCM-460, 4 h compound incubation, MTS
[9] = K562, K-562, 4 h compound incubation, MTS
[10] = DU-145, 4 h compound incubation, MTS
[11] = DLD-1, 4 h compound incubation, MTS
[12] = PACA-2, 4 h compound incubation, MTS

Compound | IC50 [1, 7] [µM] | IC50 [3, 9] [µM] | IC50 [4, 10] [µM] | IC50 [5, 11] [µM] | IC50 [6, 12] [µM] | IC50 [2, 8] [µM] | Fold Selectivity (NCM-460/DLD1) ([2]; ratio of IC50 NCM-460 / DLD1) | IC50 ([1]; A549, 4 h) [µM] | Fold Selectivity (NCM-460/DLD1) [2] | IC50 ([2]; NCM460, 4 h) [µM] | IC50 ([3]; K562, 4 h) [µM] | IC50 ([4]; DU-145, 4 h) [µM] | IC50 ([5]; DLD-1, 4 h) [µM] | IC50 ([6]; PaCa-2, 4 h) [µM]
C=COC(=O)N1CCC2(CC1)CSC1=C(O2)c2ccccc2C(=O)C1=O [Compound 94, vinyl 5,6-dioxo-5,6-dihydro-1′H-spiro[naphtho[1,2-b][1,4]oxathiine-2,4′-piperidine]-1′-carboxylate] | 8.52 | 2.49 | 3.69 | 2.41 | 2.81 | 9.48 | 3.9 |  |  |  |  |  |  | 
CCCCC(CC)COC(=O)N1CCC2(CC1)CSC1=C(O2)c2ccccc2C(=O)C1=O (centres unmarked) [Compound 95, 2-ethylhexyl 5,6-dioxo-5,6-dihydro-1′H-spiro[naphtho[1,2-b][1,4]oxathiine-2,4′-piperidine]-1′-carboxylate] | 51.4 | 12.3 | 5.13 | 10.9 | 4.72 | 37.7 | 3.5 |  |  |  |  |  |  | 
O=C1C(=O)c2ccccc2C2=C1SCC1(CCN(C(=O)OCc3ccccc3)CC1)O2 [Compound 98, benzyl 5,6-dioxo-5,6-dihydro-1′H-spiro[naphtho[1,2-b][1,4]oxathiine-2,4′-piperidine]-1′-carboxylate] | 7.3 | 1.43 | 3.98 | 3.11 | 1.61 | 4.78 | 1.5 |  |  |  |  |  |  | 
O=C1C(=O)c2ccc(F)cc2C2=C1SCC1(CCN(C(=O)Oc3cccc(C(F)(F)F)c3)CC1)O2 [Compound 100, 3-(trifluoromethyl)phenyl 9-fluoro-5,6-dioxo-5,6-dihydro-1′H-spiro[naphtho[1,2-b][1,4]oxathiine-2,4′-piperidine]-1′-carboxylate] | 8 | 1.37 | 1.39 | 1.13 | 1.32 | 5.67 | 5.0 |  |  |  |  |  |  | 
Cc1ccc(OC(=O)N2CCC3(CC2)CSC2=C(O3)c3ccccc3C(=O)C2=O)cn1 [Compound 111, 6-methyllpyridin-3-yl 5,6-dioxo-5,6-dihydro-1′H-spiro[naphtho[1,2-b][1,4]oxathiine-2,4′-piperidine]-1′-carboxylate] |  |  |  |  |  |  |  | 4.63 | 3.1 | 4.78 | 2.01 | 4.1 | 1.52 | 1.7
O=C1C(=O)c2ccccc2C2=C1SCC1(CCN(C(=O)Oc3ccccn3)CC1)O2 [Compound 112, pyridin-2-yl 5,6-dioxo-5,6-dihydro-1′H-spiro[naphtho[1,2-b][1,4]oxathiine-2,4′-piperidine]-1′-carboxylate] | 11.2 | 2.97 | 3.99 | 1.54 | 1.83 | 6.3 | 4.1 |  |  |  |  |  |  | 
O=C1C(=O)c2ccccc2C2=C1SCC1(CCN(Cc3ccccc3F)CC1)O2 [Compound 118, 1′-(2-fluorobenzyl)spiro[naphtho[1,2-b][1,4]oxathiine-2,4′-piperidine]-5,6-dione] | 10.1 | 3.85 | 5.02 | 2.42 | 2.27 | 8.3 | 3.4 |  |  |  |  |  |  | 
Cc1ccc(CN2CCC3(CC2)CSC2=C(O3)c3ccccc3C(=O)C2=O)cc1 [Compound 120, 1′-(4-methylbenzyl)spiro[naphtho[1,2-b][1,4]oxathiine-2,4′-piperidine]-5,6-dione] | 9.04 | 5.47 | 9.27 | 4.23 | 4.35 | 10.4 | 2.5 |  |  |  |  |  |  | 
COc1cccc(CN2CCC3(CC2)CSC2=C(O3)c3ccccc3C(=O)C2=O)c1 [Compound 121, 1′-(3-methoxybenzyl)spiro[naphtho[1,2-b][1,4]oxathiine-2,4′-piperidine]5,6-dione] | 9.42 | 4.03 | 5.48 | 3.98 | 3.71 | 11 | 2.8 |  |  |  |  |  |  | 
O=C1C(=O)c2ccccc2C2=C1SCC1(CCN(CC3CC3)CC1)O2 [Compound 122, 1′-(cyclopropylmethyl)spiro[naphtho[1,2-b][1,4]oxathiine-2,4′-piperidine]-5,6-dione] | 6.02 | 1.45 | 2.02 | 1.66 | 1.31 | 3.37 | 2.0 |  |  |  |  |  |  | 

Now from value to compound, other results behind:

IC50 [1, 7] [µM] | IC50 [3, 9] [µM] | IC50 [4, 10] [µM] | IC50 [5, 11] [µM] | IC50 [6, 12] [µM] | Compound | IC50 [2, 8] [µM] | Fold Selectivity (NCM-460/DLD1) ([2]; ratio of IC50 NCM-460 / DLD1) | IC50 ([1]; A549, 4 h) [µM] | Fold Selectivity (NCM-460/DLD1) [2] | IC50 ([2]; NCM460, 4 h) [µM] | IC50 ([3]; K562, 4 h) [µM] | IC50 ([4]; DU-145, 4 h) [µM] | IC50 ([5]; DLD-1, 4 h) [µM] | IC50 ([6]; PaCa-2, 4 h) [µM]
36.8 | 4.09 | 4.32 | 4.37 | 4.18 | N#Cc1ccc(CN2CCC3(CC2)CSC2=C(O3)c3ccccc3C(=O)C2=O)cc1 [Compound 123, 4-[(5,6-dioxo-5,6-dihydro-1′H-spiro[naphtho[1,2-b][1,4]oxathiine-2,4′-piperidine]-1′-yl)methyl]benzonitrile] | 9.96 | 2.3 |  |  |  |  |  |  | 
5 | 1.63 | 4.05 | 3.12 | 1.44 | CC(C)CN1CCC2(CC1)CSC1=C(O2)c2ccccc2C(=O)C1=O [Compound 126, 1′-isobutylspiro[naphtho[1,2-b][1,4]oxathiine-2,4′-piperidine]-5,6-dione] | 5.26 | 1.7 |  |  |  |  |  |  | 
42.8 | 21 | 7.41 | 16.9 | 9.22 | CCCCCCCCCCN1CCC2(CC1)CSC1=C(O2)c2ccccc2C(=O)C1=O [Compound 128, 1′-decylspiro[naphtho[1,2-b][1,4]oxathiine-2,4′-piperidine]-5,6-dione] | 40.8 | 2.4 |  |  |  |  |  |  | 
7.4 | 3.84 | 4.58 | 1.57 | 2.74 | O=C1C(=O)c2ccccc2C2=C1SCC1(CCN(Cc3ccccc3)CC1)O2 [Compound 130, 1′-benzylspiro[naphtho[1,2-b][1,4]oxathiine-2,4′-piperidine]-5,6-dione] | 10.2 | 6.5 |  |  |  |  |  |  | 
6.9 | 1.39 | 2.7 | 1.46 | 1.44 | C=CCN1CCC2(CC1)CSC1=C(O2)c2ccccc2C(=O)C1=O [Compound 131, 1′-allylspiro[naphtho[1,2-b][1,4]oxathiine-2,4′-piperidine]-5,6-dione] | 2.95 | 2.0 |  |  |  |  |  |  | 
6.62 | 2.86 | 4.05 | 1.53 | 1.94 | CC(C)CCN1CCC2(CC1)CSC1=C(O2)c2ccccc2C(=O)C1=O [Compound 132, 1′-(3-methylbutyl)spiro[naphtho[1,2-b][1,4]oxathiine-2,4′-piperidine]-5,6-dione] | 9.74 | 6.4 |  |  |  |  |  |  | 
73 | 15 | 12.9 | 13.1 | 12.5 | Cc1cccc(CN2CCC3(CC2)CSC2=C(O3)c3ccccc3C(=O)C2=O)c1 [Compound 133, 1′-(3-methylbenzyl)spiro[naphtho[1,2-b][1,4]oxathiine-2,4′-piperidine]-5,6-dione] | 29.6 | 2.3 |  |  |  |  |  |  | 
